Reference: patent US20230414556A1, “NANO-HEPATIC TARGETED EPIGALLOCATECHIN GALLATE IN DYSLIPIDEMIA” (priority 2022, published 2023)
Where two headings read alike, the source gives them in different places.

Columns and labels:
[1] = Plasma lipid profile in high-fat diet mice (nutritionally induced hypercholesterolemia model); assay type: in vivo, C57BL/6 mice; conditions: oral
Experimental: High fat diet male C57BL/6 mice aged 4-5 weeks and weighing 20-25 g were purchased from Taconic Biosciences, Inc. (Germantown, NY, USA). All animal studies were conducted at the animal facility of the Veteran Affairs Medical Center (VAMC) (Albany, NY, USA) in accordance with institutional guidelines for humane animal treatment and approved by the Institutional Animal Care & Use Committee (IACUC) at VAMC. Animals were maintained under specific pathogen-free conditions and housed under controlled conditions of temperature (20-24° C.) and humidity (60-70%) and 12 h light/dark cycle with ad libitum access to water and food. The mice were grouped into five arms (n=5). Administrated orally to the mice were water for vehicle control (VCtrl), Void nanoparticle (void NP), EGCG (30 mg/kg), Nano EGCG (NP-EGCG) and Nano-targeted EGCG (NPT-EGCG) at 30 mg/kg equivalent EGCG for 3 weeks. Blood was collected from retro-orbital after the 24 h, week 1, week 2 and week 3 treatment to measure the levels of plasma total cholesterol, LDL-C, HDL, free and cholesteryl esters. Animals were humanely sacrificed, and liver tissue was collected. The plasma contents of total cholesterol, LDL-C, HDL-C, free and cholesteryl esters were measured with the Cholesterol-HDL and LDL/VLDL assay kit according to the manufacturer's instructions (Abcam, Boston, MA, USA). Statistical analysis was performed using GraphPad Prism (San Diego, CA, USA) (Wilkinson, 1956). All data are presented as mean±standard deviation of the mean. The Mann-Whitney nonparametric test was used to determine differences in the groups. ***P<0.001, **P<0.01, *P<0.05 were considered as significant.

[2] = biological target: T1, Hydroxy-3-methyl-glutaryl-CoA reductase (HMGR) (Homo sapiens, UniProt P04035); conditions: competitive binding to the cofactor site; cited from earlier work
T1 sequence (P04035 426-888 limits assumed): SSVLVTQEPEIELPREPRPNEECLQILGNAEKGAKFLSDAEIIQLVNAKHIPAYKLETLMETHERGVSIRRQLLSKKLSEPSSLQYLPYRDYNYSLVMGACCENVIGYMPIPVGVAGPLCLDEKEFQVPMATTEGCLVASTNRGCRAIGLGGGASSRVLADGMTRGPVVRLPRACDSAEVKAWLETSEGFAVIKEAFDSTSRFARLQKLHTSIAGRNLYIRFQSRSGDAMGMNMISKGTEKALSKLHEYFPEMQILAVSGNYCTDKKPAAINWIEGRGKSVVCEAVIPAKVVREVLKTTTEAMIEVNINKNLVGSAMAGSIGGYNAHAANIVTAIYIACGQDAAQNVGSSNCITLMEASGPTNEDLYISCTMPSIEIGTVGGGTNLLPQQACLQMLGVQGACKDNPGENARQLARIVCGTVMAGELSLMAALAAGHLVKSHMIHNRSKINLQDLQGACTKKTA

[3] = cited from earlier work
[4] = 30 mg/kg, week 3, compared to vehicle control and void NP

**Q.** Which results are given for (−)-epigallocatechin gallate [EGCG]?
**A.** decrease of plasma total cholesterol ([1]; 30 mg/kg (equivalent) EGCG, week 3, compared to vehicle control and void NP): 28%; plasma cholesteryl esters (in words) ([1]; 30 mg/kg, week 2 and week 3): significant decrease; decrease in plasma LDL-C ([1]; 30 mg/kg, week 3): 3%; increase in plasma HDL-C ([1]; 30 mg/kg, week 3): 10%; levels of free cholesterol in plasma (in words) [1, 4]: significant decrease; reduction of plasma cholesteryl esters [1, 4]: 30%; reduction of plasma free cholesterol [1, 4]: 11%; inhibition of in vitro activity of HMGR [2]: potently inhibits; stability of EGCG ([3]; acidic solutions (pH<4)): very stable; stability of EGCG ([3]; neutral and alkaline solutions): extremely unstable and degraded almost completely in a few minutes
